The record followed here is patent US11235000B2, “Calcium peroxides nanoparticles as adjuvant therapy” (UNIVERSITY OF ULSTER, priority 2017, dated 2022).

Data set [1] relates to human BxPC-3 pancreatic cancer cells. The data set can be described thus: In vitro PDT of hypoxic cells, MTT cell viability. The data set is classed as cell-based. Particulars: PDT treatment alone (RB 1 μM + 532 nm LED 30 sec). The procedure:
Having determined the ability of the CaO2 NPs to improve the light induced ROS generation of Rose Bengal in a simulated hypoxic environment, the next step was to determine if this improved ROS generation would also result in increased Rose Bengal mediated PDT killing of human BxPC-3 pancreatic cancer cells.
BxPc3 cells were seeded in a 96 well plate at a density of 5×10^4 cells per well. The cells were cultured in an anaerobic cabinet (O2/CO2/N2, 0.1:5:94.9 v/v/v) for 3 hours to generate a hypoxic environment and then spiked with RB (1 μM) and incubated for a further 3 hours under anaerobic conditions. This concentration of RB is much lower than normally used in PDT cell-based studies (˜5 μM) and was chosen to enable a moderate PDT effect in the absence of CaO2 NPs so that any beneficial effect provided by the NPs could be determined (Chan et al., Tissue engineering, 13(1): 73-85, 2007). The cells were then incubated with an ethanol: PBS (50:50) solution of the NPs (50 μM) for 5 min before being exposed to light from a 532 nm emitting LED for 30 sec. The NP solution was then removed, the cells washed with fresh PBS and incubated in fresh media under normoxic conditions for a further 21 hours before cell viability was determined using a MTT assay. […]

For data set [2], the system named is Mia-PaCa 2 xenograft tumours. The data set can be described thus: PDT efficacy in vivo, tumour volume. Further details: species or system SCID mice. Particulars: PDT alone (intratumoural Rose Bengal 100 μL, 0.1 mg/mL + white light 3 min); 5 days after treatment. The procedure: All animals employed in this study were treated humanely and in accordance with licenced procedures under the UK Animals (Scientific Procedures) Act 1986. Mia-PaCa 2 xenograft tumours were established as described above. Once the tumours had reached an average volume of 254±17 mm^3 the mice were randomly separated into 4 groups (n=5). Group 1 involved untreated animals, group 2 the PDT only group, Group 3 the 1-CaO2 NPs only group and group 4 the PDT+1-CaO2 NPs group. For group 2, mice received an intratumoural injection (100 μL) of Rose Bengal (0.1 mg/mL) in a PBS solvent and the tumour was then exposed to a LED emitting white light for 3 min (0.05 J/cm^2). Group 3 received a tail vein injection (100 μL) of 1-CaO2 NPs in a PBS vehicle (2 mg/mL) while group 4 also received a tail vein injection (100 μL) of 1-CaO2 NPs in a PBS vehicle (2 mg/mL) in addition to an intratumoural injection (100 μL) of Rose Bengal (0.1 mg/mL) and light exposure as described for group 2. The tumour volume was measured daily over the course of 6 days using callipers.

Take `O=C([O-])c1c(Cl)c(Cl)c(Cl)c(Cl)c1-c1c2cc(I)c(=O)c(I)c-2oc2c(I)c([O-])c(I)cc12.[Na+].[Na+]` [Rose Bengal]: in data set [1], the reduction in viability worked out at 10.8%. The “difference in tumour volume relative to untreated control animals” value in data set [2] is reported as “no significant difference”.
